Measured values from US20120029187A1, “HALOALKYLSULFONANILIDE DERIVATIVE” (Nissan Chemical Industries, Ltd., priority 2009, published 2012).

What was measured:
Format in all cases: in vivo
barnyardgrass [1] = experiment: Test Example 1: herbicidal effects in preemergence treatment under submerged conditions; details: dose 2.52 g/a
Procedure, shortened: (§1)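 Submerged conditions, 4 cm water over alluvial soil. Weeds sown and 2.5-leaf rice transplanted; compound applied preemergence to water surface, doses in g per are. Greenhouse, 25 to 30° C., three weeks, then 0–5 mortality rating.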

bulrush [2] = experiment: as above; details: dose 2.52 g/a
Procedure, shortened: as §1

ducksalad [3] = experiment: as above; details: dose 2.52 g/a
Procedure, shortened: as §1

transplanted rice = experiment: Test Example 1: preemergence treatment under submerged conditions, effect on crop; details: dose 2.52 g/a
Procedure, shortened: as §1

barnyardgrass [4] = experiment: Test Example 2: herbicidal effects during the vegetation period under submerged conditions; details: treatment during the vegetation period under submerged conditions; dose 2.52 g/a
Procedure, shortened: (§2)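 Barnyardgrass, bulrush and ducksalad were co-sown in alluvial soil flooded to 4 cm and grown in a greenhouse at 25 to 30° C. At the 1- or 2-leaf stage, water-diluted emulsifiable concentrates went onto the water surface at set doses (g/a). Herbicidal effect was scored three weeks later on a graded scale.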

bulrush [5] = experiment: as above; details: treatment during the vegetation period under submerged conditions; dose 2.52 g/a
Procedure, shortened: as §2

ducksalad [6] = experiment: as above; details: treatment during the vegetation period under submerged conditions; dose 2.52 g/a
Procedure, shortened: as §2

Italian ryegrass [7] = experiment: Test Example 3: herbicidal effects in soil treatment; details: dose 3.2 g/a
Procedure, shortened: (§3)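 Seeds were sown in sterilized diluvial soil and covered with about 1.5 cm of soil. Compounds, formulated as emulsifiable concentrates and diluted with water, were sprayed evenly over the soil surface at set doses in g/a. Herbicidal effect was scored on a rating scale three weeks later.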

barnyardgrass [8] = experiment: as above; details: dose 3.2 g/a
Procedure, shortened: as §3

common chickweed [9] = experiment: as above; details: dose 3.2 g/a
Procedure, shortened: as §3

common lambsquater [10] = experiment: as above; details: dose 3.2 g/a
Procedure, shortened: as §3

common ragweed [11] = experiment: as above; details: dose 3.2 g/a
Procedure, shortened: as §3

giant foxtail [12] = experiment: as above; details: dose 3.2 g/a
Procedure, shortened: as §3

large crabgrass [13] = experiment: as above; details: dose 3.2 g/a
Procedure, shortened: as §3

posumbu knotweed [14] = experiment: as above; details: dose 3.2 g/a
Procedure, shortened: as §3

redroot pigweed [15] = experiment: as above; details: dose 3.2 g/a
Procedure, shortened: as §3

velvetleaf [16] = experiment: as above; details: dose 3.2 g/a
Procedure, shortened: as §3

water foxtail [17] = experiment: as above; details: dose 3.2 g/a
Procedure, shortened: as §3

Italian ryegrass [18] = experiment: Test Example 4: herbicidal effect in foliage treatment; details: dose 3.2 g/a, three weeks after the application
Procedure, shortened: (§4)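 Post-emergence foliar spray of water-diluted emulsifiable concentrate at predetermined doses (g per are), applied to plants 14 days after sowing in sterile diluvial soil (greenhouse, 25 to 30° C). Visual scale rating of effect taken 3 weeks later.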

barnyardgrass [19] = experiment: as above; details: dose 3.2 g/a, three weeks after the application
Procedure, shortened: as §4

beadstraw = experiment: as above; details: dose 3.2 g/a, three weeks after the application
Procedure, shortened: as §4

common chickweed [20] = experiment: as above; details: dose 3.2 g/a, three weeks after the application
Procedure, shortened: as §4

common lambsquater [21] = experiment: as above; details: dose 3.2 g/a, three weeks after the application
Procedure, shortened: as §4

common ragweed [22] = experiment: as above; details: dose 3.2 g/a, three weeks after the application
Procedure, shortened: as §4

giant foxtail [23] = experiment: as above; details: dose 3.2 g/a, three weeks after the application
Procedure, shortened: as §4

large crabgrass [24] = experiment: as above; details: dose 3.2 g/a, three weeks after the application
Procedure, shortened: as §4

posumbu knotweed [25] = experiment: as above; details: dose 3.2 g/a, three weeks after the application
Procedure, shortened: as §4

redroot pigweed [26] = experiment: as above; details: dose 3.2 g/a, three weeks after the application
Procedure, shortened: as §4

velvetleaf [27] = experiment: as above; details: dose 3.2 g/a, three weeks after the application
Procedure, shortened: as §4

water foxtail [28] = experiment: as above; details: dose 3.2 g/a, three weeks after the application
Procedure, shortened: as §4

CCOC(=O)N(c1ccccc1CN1OCC(C)OC1=O)S(=O)(=O)C(F)(F)F (stereo not drawn) [III-4]
A: barnyardgrass, herbicidal effect (evaluation scale 0-5) (barnyardgrass [1]): 5 (mortality of 90% or above (nearly complete death)) | B: bulrush, herbicidal effect (evaluation scale 0-5) (bulrush [2]): 5 (mortality of 90% or above (nearly complete death)) | C: ducksalad, herbicidal effect (evaluation scale 0-5) (ducksalad [3]): 5 (mortality of 90% or above (nearly complete death)) | a: transplanted rice, effect on crop (evaluation scale 0-5) (transplanted rice): 0 (mortality of less than 5% (almost ineffective)) | A: barnyardgrass, herbicidal effect (evaluation scale 0-5) (barnyardgrass [4]): 5 (mortality of 90% or above (nearly complete death)) | B: bulrush, herbicidal effect (evaluation scale 0-5) (bulrush [5]): 5 (mortality of 90% or above (nearly complete death)) | C: ducksalad, herbicidal effect (evaluation scale 0-5) (ducksalad [6]): 5 (mortality of 90% or above (nearly complete death)) | herbicidal effect, H: Italian ryegrass (Italian ryegrass [7]): 5 (mortality of 90% or above (nearly complete death)) | herbicidal effect, A: barnyardgrass (barnyardgrass [8]): 5 (mortality of 90% or above (nearly complete death)) | herbicidal effect, N: common chickweed (common chickweed [9]): 4 (mortality of at least 70% and less than 90%) | herbicidal effect, L: common lambsquater (common lambsquater [10]): 5 (mortality of 90% or above (nearly complete death)) | herbicidal effect, J: common ragweed (common ragweed [11]): 3 (mortality of at least 40% and less than 70%) | herbicidal effect, E: giant foxtail (giant foxtail [12]): 5 (mortality of 90% or above (nearly complete death)) | herbicidal effect, D: large crabgrass (large crabgrass [13]): 5 (mortality of 90% or above (nearly complete death)) | herbicidal effect, M: posumbu knotweed (posumbu knotweed [14]): 5 (mortality of 90% or above (nearly complete death)) | herbicidal effect, K: redroot pigweed (redroot pigweed [15]): 3 (mortality of at least 40% and less than 70%) | herbicidal effect, I: velvetleaf (velvetleaf [16]): 5 (mortality of 90% or above (nearly complete death)) | herbicidal effect, G: water foxtail (water foxtail [17]): 5 (mortality of 90% or above (nearly complete death)) | H: Italian ryegrass, herbicidal effect (Italian ryegrass [18]): 1 (mortality of at least 5% and less than 20%) | A: barnyardgrass, herbicidal effect (barnyardgrass [19]): 5 (mortality of 90% or above (nearly complete death)) | O: beadstraw, herbicidal effect (beadstraw): 3 (mortality of at least 40% and less than 70%) | N: common chickweed, herbicidal effect (common chickweed [20]): 5 (mortality of 90% or above (nearly complete death)) | L: common lambsquater, herbicidal effect (common lambsquater [21]): 1 (mortality of at least 5% and less than 20%) | J: common ragweed, herbicidal effect (common ragweed [22]): 4 (mortality of at least 70% and less than 90%) | E: giant foxtail, herbicidal effect (giant foxtail [23]): 4 (mortality of at least 70% and less than 90%) | D: large crabgrass, herbicidal effect (large crabgrass [24]): 3 (mortality of at least 40% and less than 70%) | M: posumbu knotweed, herbicidal effect (posumbu knotweed [25]): 3 (mortality of at least 40% and less than 70%) | K: redroot pigweed, herbicidal effect (redroot pigweed [26]): 0 (mortality of less than 5% (almost ineffective)) | I: velvetleaf, herbicidal effect (velvetleaf [27]): 3 (mortality of at least 40% and less than 70%) | G: water foxtail, herbicidal effect (water foxtail [28]): 5 (mortality of 90% or above (nearly complete death))

CCC1CON(Cc2ccccc2N(C(=O)OCCCl)S(=O)(=O)C(F)(F)F)C(=O)O1 (stereo not drawn) [III-7]
A: barnyardgrass, herbicidal effect (evaluation scale 0-5) (barnyardgrass [1]): 5 (mortality of 90% or above (nearly complete death)) | B: bulrush, herbicidal effect (evaluation scale 0-5) (bulrush [2]): 5 (mortality of 90% or above (nearly complete death)) | C: ducksalad, herbicidal effect (evaluation scale 0-5) (ducksalad [3]): 5 (mortality of 90% or above (nearly complete death)) | a: transplanted rice, effect on crop (evaluation scale 0-5) (transplanted rice): 0 (mortality of less than 5% (almost ineffective)) | A: barnyardgrass, herbicidal effect (evaluation scale 0-5) (barnyardgrass [4]): 5 (mortality of 90% or above (nearly complete death)) | B: bulrush, herbicidal effect (evaluation scale 0-5) (bulrush [5]): 5 (mortality of 90% or above (nearly complete death)) | C: ducksalad, herbicidal effect (evaluation scale 0-5) (ducksalad [6]): 5 (mortality of 90% or above (nearly complete death)) | herbicidal effect, H: Italian ryegrass (Italian ryegrass [7]): 4 (mortality of at least 70% and less than 90%) | herbicidal effect, A: barnyardgrass (barnyardgrass [8]): 5 (mortality of 90% or above (nearly complete death)) | herbicidal effect, N: common chickweed (common chickweed [9]): 5 (mortality of 90% or above (nearly complete death)) | herbicidal effect, L: common lambsquater (common lambsquater [10]): 4 (mortality of at least 70% and less than 90%) | herbicidal effect, J: common ragweed (common ragweed [11]): 4 (mortality of at least 70% and less than 90%) | herbicidal effect, E: giant foxtail (giant foxtail [12]): 5 (mortality of 90% or above (nearly complete death)) | herbicidal effect, D: large crabgrass (large crabgrass [13]): 5 (mortality of 90% or above (nearly complete death)) | herbicidal effect, M: posumbu knotweed (posumbu knotweed [14]): 4 (mortality of at least 70% and less than 90%) | herbicidal effect, K: redroot pigweed (redroot pigweed [15]): 1 (mortality of at least 5% and less than 20%) | herbicidal effect, I: velvetleaf (velvetleaf [16]): 0 (mortality of less than 5% (almost ineffective)) | herbicidal effect, G: water foxtail (water foxtail [17]): 5 (mortality of 90% or above (nearly complete death)) | H: Italian ryegrass, herbicidal effect (Italian ryegrass [18]): 0 (mortality of less than 5% (almost ineffective)) | A: barnyardgrass, herbicidal effect (barnyardgrass [19]): 5 (mortality of 90% or above (nearly complete death)) | O: beadstraw, herbicidal effect (beadstraw): 2 (mortality of at least 20% and less than 40%) | N: common chickweed, herbicidal effect (common chickweed [20]): 3 (mortality of at least 40% and less than 70%) | L: common lambsquater, herbicidal effect (common lambsquater [21]): 4 (mortality of at least 70% and less than 90%) | J: common ragweed, herbicidal effect (common ragweed [22]): 4 (mortality of at least 70% and less than 90%) | E: giant foxtail, herbicidal effect (giant foxtail [23]): 3 (mortality of at least 40% and less than 70%) | D: large crabgrass, herbicidal effect (large crabgrass [24]): 3 (mortality of at least 40% and less than 70%) | M: posumbu knotweed, herbicidal effect (posumbu knotweed [25]): 0 (mortality of less than 5% (almost ineffective)) | K: redroot pigweed, herbicidal effect (redroot pigweed [26]): 3 (mortality of at least 40% and less than 70%) | I: velvetleaf, herbicidal effect (velvetleaf [27]): 0 (mortality of less than 5% (almost ineffective)) | G: water foxtail, herbicidal effect (water foxtail [28]): 5 (mortality of 90% or above (nearly complete death))

CCOC(=O)N(c1ccccc1CN1OCC(C)(C)OC1=O)S(=O)(=O)C(F)(F)F [III-11]
A: barnyardgrass, herbicidal effect (evaluation scale 0-5) (barnyardgrass [1]): 5 (mortality of 90% or above (nearly complete death)) | B: bulrush, herbicidal effect (evaluation scale 0-5) (bulrush [2]): 5 (mortality of 90% or above (nearly complete death)) | C: ducksalad, herbicidal effect (evaluation scale 0-5) (ducksalad [3]): 5 (mortality of 90% or above (nearly complete death)) | a: transplanted rice, effect on crop (evaluation scale 0-5) (transplanted rice): 0 (mortality of less than 5% (almost ineffective)) | A: barnyardgrass, herbicidal effect (evaluation scale 0-5) (barnyardgrass [4]): 5 (mortality of 90% or above (nearly complete death)) | B: bulrush, herbicidal effect (evaluation scale 0-5) (bulrush [5]): 5 (mortality of 90% or above (nearly complete death)) | C: ducksalad, herbicidal effect (evaluation scale 0-5) (ducksalad [6]): 5 (mortality of 90% or above (nearly complete death)) | herbicidal effect, H: Italian ryegrass (Italian ryegrass [7]): 4 (mortality of at least 70% and less than 90%) | herbicidal effect, A: barnyardgrass (barnyardgrass [8]): 5 (mortality of 90% or above (nearly complete death)) | herbicidal effect, N: common chickweed (common chickweed [9]): 5 (mortality of 90% or above (nearly complete death)) | herbicidal effect, L: common lambsquater (common lambsquater [10]): 5 (mortality of 90% or above (nearly complete death)) | herbicidal effect, J: common ragweed (common ragweed [11]): 5 (mortality of 90% or above (nearly complete death)) | herbicidal effect, E: giant foxtail (giant foxtail [12]): 5 (mortality of 90% or above (nearly complete death)) | herbicidal effect, D: large crabgrass (large crabgrass [13]): 5 (mortality of 90% or above (nearly complete death)) | herbicidal effect, M: posumbu knotweed (posumbu knotweed [14]): 5 (mortality of 90% or above (nearly complete death)) | herbicidal effect, K: redroot pigweed (redroot pigweed [15]): 3 (mortality of at least 40% and less than 70%) | herbicidal effect, I: velvetleaf (velvetleaf [16]): 4 (mortality of at least 70% and less than 90%) | herbicidal effect, G: water foxtail (water foxtail [17]): 5 (mortality of 90% or above (nearly complete death)) | H: Italian ryegrass, herbicidal effect (Italian ryegrass [18]): 3 (mortality of at least 40% and less than 70%) | A: barnyardgrass, herbicidal effect (barnyardgrass [19]): 5 (mortality of 90% or above (nearly complete death)) | O: beadstraw, herbicidal effect (beadstraw): 5 (mortality of 90% or above (nearly complete death)) | N: common chickweed, herbicidal effect (common chickweed [20]): 5 (mortality of 90% or above (nearly complete death)) | L: common lambsquater, herbicidal effect (common lambsquater [21]): 4 (mortality of at least 70% and less than 90%) | J: common ragweed, herbicidal effect (common ragweed [22]): 4 (mortality of at least 70% and less than 90%) | E: giant foxtail, herbicidal effect (giant foxtail [23]): 4 (mortality of at least 70% and less than 90%) | D: large crabgrass, herbicidal effect (large crabgrass [24]): 0 (mortality of less than 5% (almost ineffective)) | M: posumbu knotweed, herbicidal effect (posumbu knotweed [25]): 4 (mortality of at least 70% and less than 90%) | K: redroot pigweed, herbicidal effect (redroot pigweed [26]): 2 (mortality of at least 20% and less than 40%) | I: velvetleaf, herbicidal effect (velvetleaf [27]): 4 (mortality of at least 70% and less than 90%) | G: water foxtail, herbicidal effect (water foxtail [28]): 5 (mortality of 90% or above (nearly complete death))
